{
  "source": "patent US20090264528A1",
  "about": "“SERINE PALMITOYLCOA TRANSFERASE (SPT) INHIBITION BY MYRIOCIN OR GENETIC DEFICIENCY DECREASES CHOLESTEROL ABSORPTION” (The Research Foundation of State University of New York, priority 2008, published 2009)",
  "key": {"[1]": {"experiment": "Mouse plasma lipid measurement", "format": "in vivo", "conditions": "for plasma Chol (cholesterol) / plasma PC (phosphatidylcholine) / plasma SM (sphingomyelin) / plasma TG (triglycerol): mean ± SD, N=6", "procedure": "Mice and diet: Male C57BL/6J and apoE KO (Apolipoprotien E knockout) mice with a C57BL/6J background were obtained from the Jackson Laboratory (Bar Harbor, Me.). Sptlc1 heterozygous KO mice with a C57BL/6 background were created and bred in the inventors' laboratory. Myriocin was mixed with a chow diet. Eight- to 12-week-old WT or apoE KO (n=6) mice received myriocin 0.3 mg kg^−1·d^−1 for 12 weeks. The myriocin dose was chosen from a previous dose-dependent experiment with apoE-KO mice. Controls consisted of WT or apoE KO mice fed a chow diet (n=6). Sptlc1 heterozygous KO (Sptlc1^+/−)(n=6) and WT mice were also fed a chow diet. […]\nAs reported previously in (25), which is incorporated by reference herein, Sptlc1^+/− and WT mice had identical plasma lipid levels (Table 1)."}, "[2]": {"molecular_target": "T1, Serine palmitoylCoA transferase (SPT) (Mus musculus, UniProt O35704+P97363)", "T1 construct": "from tissue; host or cells: small intestine homogenate of C57BL/6J WT and apoE KO mice fed chow with or without myriocin", "T1 sequence (O35704 1-473)": "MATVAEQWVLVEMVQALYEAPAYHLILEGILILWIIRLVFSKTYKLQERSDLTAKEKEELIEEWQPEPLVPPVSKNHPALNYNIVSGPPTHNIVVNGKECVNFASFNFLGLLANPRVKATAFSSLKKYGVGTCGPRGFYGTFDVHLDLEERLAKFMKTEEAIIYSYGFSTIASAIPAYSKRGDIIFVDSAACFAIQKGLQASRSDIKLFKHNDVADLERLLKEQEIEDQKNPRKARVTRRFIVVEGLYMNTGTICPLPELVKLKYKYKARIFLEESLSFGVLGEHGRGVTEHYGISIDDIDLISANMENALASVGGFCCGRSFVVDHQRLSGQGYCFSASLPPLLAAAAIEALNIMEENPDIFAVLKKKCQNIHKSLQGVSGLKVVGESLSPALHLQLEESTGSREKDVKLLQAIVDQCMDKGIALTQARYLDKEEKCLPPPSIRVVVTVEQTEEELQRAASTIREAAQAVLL", "T1 sequence (P97363 1-560)": "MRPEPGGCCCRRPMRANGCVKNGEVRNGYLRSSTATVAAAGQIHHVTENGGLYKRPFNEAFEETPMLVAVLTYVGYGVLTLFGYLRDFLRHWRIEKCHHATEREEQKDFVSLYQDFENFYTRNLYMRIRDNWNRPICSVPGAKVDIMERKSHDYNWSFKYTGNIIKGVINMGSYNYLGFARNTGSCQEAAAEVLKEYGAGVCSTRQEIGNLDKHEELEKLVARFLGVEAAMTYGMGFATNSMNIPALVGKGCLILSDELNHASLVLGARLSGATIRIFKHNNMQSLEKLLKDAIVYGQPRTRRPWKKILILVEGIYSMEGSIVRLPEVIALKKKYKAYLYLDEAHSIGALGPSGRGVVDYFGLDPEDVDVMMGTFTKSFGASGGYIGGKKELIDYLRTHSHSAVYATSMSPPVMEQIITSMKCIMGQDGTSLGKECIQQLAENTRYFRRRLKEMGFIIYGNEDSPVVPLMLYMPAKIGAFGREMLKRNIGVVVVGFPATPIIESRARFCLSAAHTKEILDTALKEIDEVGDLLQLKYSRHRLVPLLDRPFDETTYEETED", "T1 sequence (Q8R207 1-71 partner)": "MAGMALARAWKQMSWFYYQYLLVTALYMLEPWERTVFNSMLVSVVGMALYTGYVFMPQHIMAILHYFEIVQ", "experiment": "Tissue SPT activity assay, small intestine homogenate of treated mice", "format": "in vivo", "conditions": "chow diet plus myriocin for 3 weeks, vs chow controls", "procedure": "FIGS. 1A-1C depict three graphical representations of SPT deficiency decreased SPT activity in mouse small intestine. SPT activity of small intestine homogenate was measured with […] and palmitoyl-coenzyme A as substrates. TLC was performed to separate the product, 3-keto-dihydrosphingosine (KDS, Inset). KDS band was scanned. In FIG. 1A, wildtype (WT) mice fed chow diet or chow diet plus myriocin. In FIG. 1B, apoE KO (knockout)\nMice and diet: Male C57BL/6J and apoE KO (Apolipoprotien E knockout) mice with a C57BL/6J background were obtained from the Jackson Laboratory (Bar Harbor, Me.). Sptlc1 heterozygous KO mice with a C57BL/6 background were created and bred in the inventors' laboratory. Myriocin was mixed with a chow diet. […] The myriocin dose was chosen from a previous dose-dependent experiment with apoE-KO mice. Controls consisted of WT or apoE KO mice fed a chow diet (n=6). Sptlc1 heterozygous KO (Sptlc1^+/−)(n=6) and WT mice were also fed a chow diet.\nTissue SPT activity assay: Mouse small intestine (0.2 g) was homogenized in 0.5 ml of 50 mM Tris-HCl, pH 7.4, 5 mM EDTA, and 250 mM sucrose. SPT activity in the homogenates was measured with [^14C]-serine and palmitoyl-coenzyme A for substrates, as previously described (22), which is incorporated herein by reference in its entirety. […]"}},
  "data": [
    {"smiles": "CCCCCCC(=O)CCCCCC/C=C/C[C@@H](O)[C@H](O)[C@@](N)(CO)C(=O)O", "note": "[Myriocin, myriocin]", "values": [
      {"measurement": "plasma Chol (cholesterol)", "setting": "[1]; ApoE KO mice", "result": "350 ± 42", "unit": "mg/dL"},
      {"measurement": "plasma PC (phosphatidylcholine)", "setting": "[1]; ApoE KO mice", "result": "334 ± 49", "unit": "mg/dL"},
      {"measurement": "plasma SM (sphingomyelin)", "setting": "[1]; ApoE KO mice", "result": "39 ± 4", "unit": "mg/dL"},
      {"measurement": "plasma TG (triglycerol)", "setting": "[1]; ApoE KO mice", "result": "89 ± 13", "unit": "mg/dL"},
      {"measurement": "effect on plasma lipids, including SM, PC, and cholesterol levels", "setting": "[1]; WT mice", "result": "no significant effect"},
      {"measurement": "plasma Chol (cholesterol)", "setting": "[1]; WT mice", "result": "95 ± 12", "unit": "mg/dL"},
      {"measurement": "plasma PC (phosphatidylcholine)", "setting": "[1]; WT mice", "result": "155 ± 31", "unit": "mg/dL"},
      {"measurement": "plasma SM (sphingomyelin)", "setting": "[1]; WT mice", "result": "22 ± 2", "unit": "mg/dL"},
      {"measurement": "plasma TG (triglycerol)", "setting": "[1]; WT mice", "result": "71 ± 15", "unit": "mg/dL"},
      {"measurement": "decrease of plasma SM compared with controls", "setting": "[1]; apoE KO mice, P<0.001", "result": 48, "unit": "%"},
      {"measurement": "decrease of plasma cholesterol compared with controls", "setting": "[1]; apoE KO mice, P<0.01", "result": 37, "unit": "%"},
      {"measurement": "less SPT activity than controls in the small intestine", "setting": "[2]; WT mice", "result": 60, "unit": "%"},
      {"measurement": "less SPT activity than controls in the small intestine", "setting": "[2]; apoE KO mice", "result": 65, "unit": "%"}
    ]}
  ]
}
